According to patent US5583227A, “Antiulcer compounds having a substituted alkynyl or quinoxaline nucleus and methods of making thereof” (Mochida Pharmaceutical Co. Ltd., priority 1994, dated 1996):

Key:
[1] = biological target: T1, H^+,K^+ adenosine triphosphatase (Sus scrofa, UniProt P19156); experiment: H+,K+ adenosine triphosphatase inhibition (proton pump inhibition); format: biochemical, hog; conditions: H+,K+ ATPase fraction from hog stomach microsomes, ATP substrate, released inorganic phosphorus; read-out: Enzyme inhibition IC50 value (converted)
T1 construct: hog stomach was homogenized and subjected to ultracentrifugation to obtain a microsome fraction; from tissue; host or cells: hog stomach, microsome fraction (discontinuous Ficoll gradient)
T1 sequence (P19156 2-1034 limits assumed): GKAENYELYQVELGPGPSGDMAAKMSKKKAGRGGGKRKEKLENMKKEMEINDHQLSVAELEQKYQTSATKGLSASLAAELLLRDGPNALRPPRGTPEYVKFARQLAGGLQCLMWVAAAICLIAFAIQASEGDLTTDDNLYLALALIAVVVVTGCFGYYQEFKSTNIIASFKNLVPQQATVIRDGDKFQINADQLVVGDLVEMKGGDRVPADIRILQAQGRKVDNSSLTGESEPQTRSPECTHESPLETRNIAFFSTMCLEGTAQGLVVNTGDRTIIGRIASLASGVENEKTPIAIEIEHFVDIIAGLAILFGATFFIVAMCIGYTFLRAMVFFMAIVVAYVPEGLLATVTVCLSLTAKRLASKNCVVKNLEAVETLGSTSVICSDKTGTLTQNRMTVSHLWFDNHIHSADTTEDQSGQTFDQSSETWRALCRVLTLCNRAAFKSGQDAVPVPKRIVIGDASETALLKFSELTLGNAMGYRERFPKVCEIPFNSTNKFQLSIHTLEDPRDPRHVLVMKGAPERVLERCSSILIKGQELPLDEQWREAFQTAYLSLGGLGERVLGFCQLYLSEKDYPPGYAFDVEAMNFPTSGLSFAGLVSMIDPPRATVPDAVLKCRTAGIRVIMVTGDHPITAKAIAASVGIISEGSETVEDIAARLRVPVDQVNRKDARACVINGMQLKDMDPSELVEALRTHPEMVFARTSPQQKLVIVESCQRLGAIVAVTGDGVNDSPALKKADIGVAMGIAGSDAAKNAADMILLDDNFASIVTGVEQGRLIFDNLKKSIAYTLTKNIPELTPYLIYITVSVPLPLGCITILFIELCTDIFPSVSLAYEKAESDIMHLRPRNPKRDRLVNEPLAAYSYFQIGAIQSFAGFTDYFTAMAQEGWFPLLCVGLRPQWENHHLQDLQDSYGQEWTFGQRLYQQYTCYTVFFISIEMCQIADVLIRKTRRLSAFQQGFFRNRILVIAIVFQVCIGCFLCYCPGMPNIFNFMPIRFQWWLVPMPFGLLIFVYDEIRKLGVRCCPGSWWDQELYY
T1 sequence (P18434 whole entry partner): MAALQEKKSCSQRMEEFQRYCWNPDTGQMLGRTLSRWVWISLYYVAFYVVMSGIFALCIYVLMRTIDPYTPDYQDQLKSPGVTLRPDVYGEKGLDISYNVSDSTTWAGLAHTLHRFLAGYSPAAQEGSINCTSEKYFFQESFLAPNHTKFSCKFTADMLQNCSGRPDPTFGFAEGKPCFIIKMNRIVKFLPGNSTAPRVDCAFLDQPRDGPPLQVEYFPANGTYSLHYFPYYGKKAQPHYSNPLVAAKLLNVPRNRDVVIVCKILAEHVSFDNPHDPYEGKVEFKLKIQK
Method: Proton pump inhibition was evaluated by the H^+,K^+ adenosine triphosphatase (to be referred to as "H^+,K^+ ATPase" hereinafter)inhibition.
That is, hog stomach was homogenized and subjected to ultracentrifugation to obtain a microsome fraction, and the microsomes were subjected to discontinuous density gradient ultracentrifugation using 0 and 9% Ficoll solutions to obtain a fraction containing H^+,K^+ ATPase. The H^+,K^+ ATPase activity was determined by measuring the released inorganic phosphorus using ATP as the substrate and an inorganic phosphorus measuring reagent PiSET(IATRON) manufactured by IATRON.

[2] = test system: gastric acid secretion; experiment: Gastric acid secretion inhibition activity (pylorus-ligated, histamine-stimulated rats); format: in vivo, Sprague-Dawley (SD) male rats; conditions: Rattus norvegicus; 30 mg/kg oral; pylorus ligated 3 hours later; histamine hydrochloride 30 mg/kg s.c.; total acidity over 3 hours; read-out: Acid secretion inhibition rate (%)
Method: (Test Example 2) Gastric acid secretion inhibition activity
Basically according to the method of Satoh et (Journal of Pharmacology and Experimental Therapeutics, vol.248, pp.806-815, 1988), each of the compounds shown in Examples was orally administered at a dose of 30 mg/kg to Sprague-Dawley (SD) male rats which have been subjected to fasting of 24 hours (free drinking).
After 3 hours of the compound administration, the pylorus of each rat was ligated under urethane anesthesia, and 30 mg of histamine hydrochloride per Kg was administered to the rat by subcutaneous injection. After 3 hours of the ligation, the gastric juice was collected to measure its volume and calculate total acidity (mEqH^+ /3 hours) by sodium hydroxide titration. The inhibition rate (%) was calculated by the following formula in which A represents the total gastric juice acidity of control group rat and B represents the total gastric juice acidity of test compound-administered group rat. [formula]

[3] = test system: Pylorus ligation ulcer; experiment: Pylorus ligation ulcer; format: in vivo, Wistar male rats; conditions: Rattus norvegicus; oral, 14 hours after pylorus ligation; read-out: Antiulcer activity, Pylorus ligation ulcer, ED50 value
Method: (Test Example 4) Pylorus ligation ulcer
Basically according to the method of Shay et al. (Gastroenterology, vol.5, pp.43-61, 1945), each of the compounds shown in Examples was orally administered to Wistar male rats which have been subjected to fasting of 48 hours (free drinking). After 30 minutes of the compound administration,the pylorus of each rat was ligated.
After 14 hours of standing, the stomach was excised. The length and width of each ulcer developed in the fore-stomach part were measured under a stereoscopic microscope to calculate the ulcer area (length×width). In accordance with the method of Takagi et al. (Japan. J. Pharmacol., vol.24, pp.357-361, 1974), ulcer index was calculated based on the total ulcer area per animal. The dose of each test compound required to inhibit 50% of the ulcer index of the control group was calculated (ED50).

[4] = test system: ulcer induced by 0.15N hydrochloric acid and 60% ethanol; experiment: Cell protection effect (hydrochloric acid/ethanol-induced ulcer); format: in vivo, Wistar male rats; conditions: Rattus norvegicus, 1 h; oral, 30 minutes before 0.15N HCl / 60% ethanol 5 ml/kg
Method: (Test Example 5) Cell protection effect
Basically according to the method of Mizui and Doteuchi (Japan. J. Pharmacol., vol.33, pp.939-945, 1983), each of the compounds shown in Examples was orally administered to Wistar male rats which have been subjected to fasting of 24 hours (free drinking). After 30 minutes of the compound administration, a mixture solution of 0.15N hydrochloric acid and 60% ethanol was orally administered at a dose of 5 ml/kg. After 1 hour of standing, the stomach was excised. The length (mm) of each ulcer developed in the stomach was measured under a stereoscopic microscope to calculate the total length of ulcers per animal as an ulcer index. The dose of each test compound required to inhibit 50% of the ulcer index of the control group was calculated (ED50).

[5] = Acute toxicity test; conditions: mouse, in vivo; oral, mice, one week observation
Text: (Test Example 6) Acute toxicity test
Each of the compounds shown in Examples was orally administered to three ICR male mice per group.

[6] = test system: Stress ulcer; experiment: Stress ulcer; format: in vivo, Wistar male rats; conditions: Rattus norvegicus; oral, 7 hours stress loading in water bath at 23° C.; read-out: Antiulcer activity, Stress ulcer, ED50 value
Method: (Test Example 3) Stress ulcer
Basically according to the method of Takagi et al. (Japanese Journal of Pharmacology (to be referred to as "Japan. J. Pharmacol." hereinafter), vol.18, pp.9-18, each of the compounds shown in Examples was orally administered to Wistar male rats which have been subjected to fasting of 24 hours (free drinking). Each rat was transferred into a stress cage 30 minutes thereafter and subjected to stress loading by suspending the cage in a water bath controlled at 23° C. to such a depth that the rat was soaked up to its breast.
After 7 hours of the stress loading, the rat was recovered from the water bath to excise the stomach. The length (mm) of each ulcer developed in the stomach was measured under a stereoscopic microscope, and the total length of ulcers per one animal was used as an ulcer index. The dose of each test compound required to inhibit 50% of the ulcer index of the control group was calculated (ED50). The results are shown in Table 3, together with the results of the following pylorus ligation ulcer test.

Compound | IC50 [1] | inhibition in vivo at 30 mg/kg [2] | ED50 [3] | ED50 [4] | LD50 at 168 h [5] | ED50 [6]
CCC(C#Cc1nc2ccccc2nc1C#CC(CC)OC)OC (stereo not shown) [Example 11, 2,3-bis(3-methoxy-1-pentynyl)quinoxaline] | 30.4 µM | 27% | 35 mg/kg | 41 mg/kg | > 1000 mg/kg | 
COC(C)(C)C#Cc1nc2ccccc2nc1C#CC(C)(C)OC [Example 114] | 93 µM | 30% |  | 22 mg/kg | > 1000 mg/kg | 
CCC(C#Cc1nc2ccccc2nc1C#CC(CC)OCCOC)OCCOC (stereo not shown) [Example 116] | 188 µM | 32% |  | 2.7 mg/kg | > 1000 mg/kg | 39 mg/kg
CCOCCOC(C#Cc1nc2ccccc2nc1C#CC(CC)OCCOCC)CC (stereo not shown) [Example 117] | 123 µM | 35% | 28 mg/kg | 8 mg/kg | > 1000 mg/kg | 6.1 mg/kg
CCOC(C)C#Cc1nc2ccccc2nc1C#CC(C)OCC (stereo not shown) [Example 10, 2,3-bis(3-ethoxy-1-butynyl)quinoxaline] | 96.2 µM | 38% | 11 mg/kg | 1.9 mg/kg |  | 15 mg/kg
COCCOC(C)(C)C#Cc1nc2ccccc2nc1C#CC(C)(C)OCCOC [Example 43, 2,3-bis(3-(2-methoxyethoxy)-3-methyl-1-butynyl)quinoxaline] |  |  |  | 13 mg/kg | > 1000 mg/kg | 
CCC(C#Cc1nc2ccc(C=O)cc2nc1C#CC(CC)OCCOC)OCCOC (stereo not shown) [Example 138] | 10.7 µM |  |  | 9.8 mg/kg |  | 
COCC#Cc1nc(C#N)c(C#N)nc1C#CCOC [Example 7, 5,6-bis(3-methoxy-1-propynyl)-2,3-dicyanopyrazine] | 1.88 µM |  | 1.2 mg/kg | 1.2 mg/kg | > 1000 mg/kg | 5.6 mg/kg
CCC(C#Cc1nc2ccccc2nc1C#CC(CC)OCCOC(C)C)OCCOC(C)C (stereo not shown) [Example 119] | 11.1 µM |  |  | 22 mg/kg |  | 
CCOCCOC(C)(C)C#Cc1nc2ccccc2nc1C#CC(C)(C)OCCOCC [Example 44, 2,3-bis(3-(2-ethoxyethoxy)-3-methyl-1-butynyl)quinoxaline] | 88.9 µM |  |  | 13 mg/kg | > 1000 mg/kg | 59 mg/kg
